pKi: −log10 of the molar value.
Molecular target: T1, GSK-3β (AA 1-420) (Homo sapiens, UniProt P49841)
T1 construct: GSK-3β (AA 1-420)
Assay: Ki determination for the inhibition of GSK-3 (coupled enzyme system)
Type: biochemical
Conditions: 20 μM ATP, 300 μM peptide, 20 nM GSK-3β, 30° C
Method: Compounds were screened for their ability to inhibit GSK-3β (AA 1-420) activity using a standard coupled enzyme system (Fox et al. (1998) Protein Sci. 7, 2249). Reactions were carried out in a solution containing 100 mM HEPES (pH 7.5), 10 mM MgCl2, 25 mM NaCl, 300 μM NADH, 1 mM DTT and 1.5% DMSO. Final substrate concentrations in the assay were 20 μM ATP (Sigma Chemicals, St Louis, Mo.) and 300 μM peptide (HSSPHQS(PO3H2)EDEEE, American Peptide, Sunnyvale, Calif.). Reactions were carried out at 30° C. and 20 nM GSK-3β. Final concentrations of the components of the coupled enzyme system were 2.5 mM phosphoenolpyruvate, 300 μM NADH, 30 μg/ml pyruvate kinase and 10 μg/ml lactate dehydrogenase.
An assay stock buffer solution was prepared containing all of the reagents listed above with the exception of ATP and the test compound of interest. The assay stock buffer solution (175 μl) was incubated in a 96 well plate with 5 μl of the test compound of interest at final concentrations spanning 0.002 μM to 30 μM at 30° C. for 10 min. Typically, a 12 point titration was conducted by preparing serial dilutions (from 10 mM compound stocks) with DMSO of the test compounds in daughter plates. The reaction was initiated by the addition of 20 μl of ATP (final concentration 20 μM). Rates of reaction were obtained using a Molecular Devices Spectramax plate reader (Sunnyvale, Calif.) over 10 min at 30° C. The Ki values were determined from the rate data as a function of inhibitor concentration.

T1 sequence (P49841 whole entry, the tested form may be a part): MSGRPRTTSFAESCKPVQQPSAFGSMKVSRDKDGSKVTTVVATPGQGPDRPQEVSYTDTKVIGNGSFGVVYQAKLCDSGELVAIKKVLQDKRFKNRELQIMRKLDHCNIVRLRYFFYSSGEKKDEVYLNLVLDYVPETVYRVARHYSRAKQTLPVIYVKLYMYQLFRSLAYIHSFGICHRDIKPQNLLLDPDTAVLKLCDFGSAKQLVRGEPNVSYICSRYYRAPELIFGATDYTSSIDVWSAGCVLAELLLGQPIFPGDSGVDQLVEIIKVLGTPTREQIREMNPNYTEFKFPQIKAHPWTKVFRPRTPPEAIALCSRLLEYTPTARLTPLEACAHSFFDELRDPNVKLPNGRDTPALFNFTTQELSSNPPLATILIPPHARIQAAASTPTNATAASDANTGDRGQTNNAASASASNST

pKi | Compound
4.70 to 6.00 | FC(F)(F)c1ccccc1-c1nc(Nc2n[nH]cc2-c2cccs2)c2ccccc2n1 [II-47, [4-(Thiophen-2-yl)-2H-pyrazol-3-yl]-[2-(2-trifluoromethylphenyl)-quinazolin-4-yl]-amine]
4.70 to 6.00 | FC(F)(F)c1ccccc1-c1nc(Nc2n[nH]cc2-c2ccccc2)c2ccccc2n1 [II-48, (4-Phenyl-2H-pyrazol-3-yl)-[2-(2-trifluoromethylphenyl)-quinazolin-4-yl]-amine]
6.00 to 7.00 | CC(C)(C)c1cc(Nc2nc(-c3ccccc3C(F)(F)F)nc3ccccc23)n[nH]1 [II-49, (5-tert-Butyl-2H-pyrazol-3-yl)-[2-(2-trifluoromethyl-phenyl)-quinazolin-4-yl]-amine]
6.00 to 7.00 | FC(F)(F)c1ccccc1-c1nc(Nc2cc(-c3ccccc3)[nH]n2)c2ccccc2n1 [II-50, (5-Phenyl-2H-pyrazol-3-yl)-[2-(2-trifluoromethylphenyl)-quinazolin-4-yl]-amine]
4.70 to 6.00 | FC(F)(F)c1ccccc1-c1nc(Nc2n[nH]c(-c3ccccc3)c2-c2ccccc2)c2ccccc2n1 [II-51, (4,5-Diphenyl-2H-pyrazol-3-yl)-[2-(2-trifluoromethylphenyl)-quinazolin-4-yl]-amine]
4.70 to 6.00 | NC(=O)c1c[nH]nc1Nc1nc(-c2ccccc2C(F)(F)F)nc2ccccc12 [II-52, (4-Carbamoyl-2H-pyrazol-3-yl)-[2-(2-trifluoromethylphenyl)-quinazolin-4-yl]-amine]
> 7.00 | COCc1cc(Nc2nc(-c3ccccc3C(F)(F)F)nc3ccccc23)n[nH]1 [II-56, (5-Methoxymethyl-2H-pyrazol-3-yl)-[2-(2-trifluoromethyl-phenyl)-quinazolin-4-yl]-amine]
> 7.00 | Fc1cccc2c(Nc3nc(-c4ccccc4C(F)(F)F)nc4ccccc34)n[nH]c12 [II-60, (7-Fluoro-1H-indazol-3-yl)-[2-(2-trifluoromethyl-phenyl)-quinazolin-4-yl]-amine]
> 7.00 | Fc1ccc2[nH]nc(Nc3nc(-c4c(Cl)cccc4Cl)nc4ccccc34)c2c1 [II-62, [2-(2,6-Dichloro-phenyl)-quinazolin-4-yl]-(5-fluoro-1H-indazol-3-yl)-amine]
4.70 to 6.00 | FC(F)(F)c1ccccc1-c1nc(Nc2n[nH]c3cccc(C(F)(F)F)c23)c2ccccc2n1 [II-65, (4-Trifluoromethyl-1H-indazol-3-yl)-[2-(2-trifluoromethyl-phenyl)-guinazolin-4-yl]-amine]
> 7.00 | Clc1cccc(Cl)c1-c1nc(Nc2n[nH]c3ccccc23)c2ccccc2n1 [II-66, [2-(2,6-Dichloro-phenyl)-guinazolin-4-yl]-(1H-indazol-3-yl)-amine]
4.70 to 6.00 | FC(F)(F)c1ccccc1-c1nc(Nc2n[nH]c3c(C(F)(F)F)cccc23)c2ccccc2n1 [II-68, (7-Trifluoromethyl-1H-indazol-3-yl)-[2-(2-trifluoromethyl-phenyl)-quinazolin-4-yl]-amine]
> 7.00 | Fc1cc(F)c2[nH]nc(Nc3nc(-c4ccccc4C(F)(F)F)nc4ccccc34)c2c1 [II-71, (5,7-Difluoro-1H-indazol-3-yl)-[2-(2-trifluoromethyl-phenyl)-quinazolin-4-yl]-amine]
4.70 to 6.00 | FC(F)(F)c1ccccc1-c1nc(Nc2n[nH]c3cccc(-n4cccc4)c23)c2ccccc2n1 [II-72, (4-Pyrrol-1-yl-1H-indazol-3-yl)-[2-(2-trifluoromethyl-phenyl)-quinazolin-4-yl]-amine]
> 7.00 | Fc1cccc2c(Nc3nc(-c4ccccc4Cl)nc4ccccc34)n[nH]c12 [II-74, [2-(2-Chloro-phenyl)-quinazolin-4-yl]-(7-fluoro-1H-indazol-3-yl)-amine]
> 7.00 | Fc1c(C(F)(F)F)ccc2c(Nc3nc(-c4ccccc4C(F)(F)F)nc4ccccc34)n[nH]c12 [II-81, (7-Fluoro-6-trifluoromethyl-1H-indazol-3-yl)-[2-(2-trifluoromethyl-phenyl)-quinazolin-4-yl]-amine]
> 7.00 | Fc1cc(F)c2[nH]nc(Nc3nc(-c4ccc(C(F)(F)F)cc4C(F)(F)F)nc4ccccc34)c2c1 [II-83, [2-(2,4-Bis-trifluoromethyl-phenyl)-quinazolin-4-yl]-(5,7-difluoro-1H-indazol-3-yl)-amine]
> 7.00 | Fc1ccc(-c2nc(Nc3n[nH]c4c(F)cc(F)cc34)c3ccccc3n2)c(C(F)(F)F)c1 [II-84, (5,7-Difluoro-1H-indazol-3-yl)-[2-(4-fluoro-2-trifluoromethyl-phenyl)-quinazolin-4-yl]-amine]
> 7.00 | Fc1cc(F)c2[nH]nc(Nc3nc(-c4ccccc4Br)nc4ccccc34)c2c1 [II-85, [2-(2-Bromo-phenyl)-quinazolin-4-yl]-(5,7-difluoro-1H-indazol-3-yl)-amine]
> 7.00 | Fc1cc(F)c2[nH]nc(Nc3nc(-c4ccc(Cl)cc4Cl)nc4ccccc34)c2c1 [II-87, [2-(2,4-Dichloro-phenyl)-quinazolin-4-yl]-(5,7-Difluoro-1H-indazol-3-yl)-amine]

Second part, the compound before the results:

Compound | pKi
Fc1ccc2[nH]nc(Nc3nc(-c4ccccc4C(F)(F)F)nc4c3CCCCC4)c2c1 [II-15, (5-Fluoro-1H-indazol-3-yl)-[2-(2-trifluoromethyl-phenyl)-6,7,8,9-tetrahydro-5H-cycloheptapyrimidin-4-yl]-amine] | > 7.00
Fc1ccc2[nH]nc(Nc3nc(-c4ccccc4C(F)(F)F)nc4c3CNCC4)c2c1 [II-16, (5-Fluoro-1H-indazol-3-yl)-[2-(2-trifluoromethyl-phenyl)-5,6,7,8-tetrahydro-pyrido[4,3-d]pyrimidin-4-yl]-amine] | > 7.00
FC(F)(F)c1ccccc1-c1nc2c(c(Nc3n[nH]c4ccccc34)n1)CCCC2 [II-17, (1H-indazol-3-yl)-[2-(2-trifluoromethyl-phenyl)-5,6,7,8-tetrahydroquinazolin-4-yl]-amine] | > 7.00
Fc1ccc2[nH]nc(Nc3nc(-c4ccccc4C(F)(F)F)nc4c3CCN(Cc3ccccc3)C4)c2c1 [II-18] | > 7.00
FC(F)(F)c1ccccc1-c1nc(Nc2n[nH]c3ccccc23)cc(-c2ccccn2)n1 [II-22, (1H-Indazol-3-yl)-[6-(pyridin-2-yl)-2-(2-trifluoromethyl-phenyl)-pyrimidin-4-yl]-amine] | 6.00 to 7.00
FC(F)(F)c1ccccc1-c1nc(Nc2n[nH]c3ccccc23)cc(-c2ccccc2Cl)n1 [II-23, [6-(2-Chlorophenyl)-2-(2-trifluoromethyl-phenyl)-pyrimidin-4-yl]-(1H-indazol-3-yl)-amine] | > 7.00
Cc1nc(-c2ccccc2Cl)nc(Nc2n[nH]c3ccccc23)c1C [II-26, [2-(2-Chlorophenyl)-5,6-dimethyl-pyrimidin-4-yl]-(1H-indazol-3-yl)-amine] | > 7.00
Cc1nc(-c2ccccc2C(F)(F)F)nc(Nc2n[nH]c3c(F)cccc23)c1C [II-27, [5,6-Dimethyl-2-(2-trifluoromethyl-phenyl)-pyrimidin-4-yl]-(7-fluoro-1H-indazol-3-yl)-amine] | > 7.00
Cc1nc(-c2ccccc2C(F)(F)F)nc(Nc2n[nH]c3c(F)cc(F)cc23)c1C [II-28, (5,7-Difluoro-1H-indazol-3-yl)-[5,6-Dimethyl-2-(2-trifluoromethyl-phenyl)-pyrimidin-4-yl]-amine] | > 7.00
Cc1nc(-c2ccccc2Cl)nc(Nc2n[nH]c3c(F)cc(F)cc23)c1C [II-29, [2-(2-Chlorophenyl)-5,6-dimethyl-pyrimidin-4-yl]-(5,7-difluoro-1H-indazol-3-yl)-amine] | > 7.00
Cc1nc(-c2ccccc2Cl)nc(Nc2n[nH]c3c(F)cccc23)c1C [II-30, [2-(2-Chlorophenyl)-5,6-dimethyl-pyrimidin-4-yl]-(7-fluoro-1H-indazol-3-yl)-amine] | > 7.00
Cc1nc(-c2ccccc2Cl)nc(Nc2n[nH]c3ccc(F)cc23)c1C [II-31, [2-(2-Chlorophenyl)-5,6-dimethyl-pyrimidin-4-yl]-(5-fluoro-1H-indazol-3-yl)-amine] | > 7.00
Cc1nc(-c2ccc(Cl)cc2Cl)nc(Nc2n[nH]c3ccccc23)c1C [II-32, [2-(2,4-Dichlorophenyl)-5,6-dimethyl-pyrimidin-4-yl]-(1H-indazol-3-yl)-amine] | 6.00 to 7.00
Cc1cc(Nc2nc(-c3ccccc3-c3ccccc3)nc3ccccc23)n[nH]1 [II-43, (2-Biphenyl-2-yl-quinazolin-4-yl)-(5-methyl-2H-pyrazol-3-yl)-amine] | 4.70 to 6.00
Cc1cc(Nc2nc(-c3ccccc3O)nc3ccccc23)n[nH]1 [II-44, [2-(2-Hydroxyphenyl)-quinazolin-4-yl]-(5-Methyl-2H-pyrazol-3-yl)-amine] | 6.00 to 7.00
CCOc1ccccc1-c1nc(Nc2cc(C)[nH]n2)c2ccccc2n1 [II-45, [2-(2-Ethoxyphenyl)-quinazolin-4-yl]-(5-Methyl-2H-pyrazol-3-yl)-amine] | 6.00 to 7.00
FC(F)(F)c1ccccc1-c1nc(Nc2cc(-c3cccs3)[nH]n2)c2ccccc2n1 [II-46, [5-(Thiophen-2-yl)-2H-pyrazol-3-yl]-[2-(2-trifluoromethylphenyl)-quinazolin-4-yl]-amine] | > 7.00

— patent US6610677B2, “Pyrazole compounds useful as protein kinase inhibitors” (Vertex Pharmaceuticals Incorporated, priority 2000, dated 2003)
